In US8507464B2, “Phosphoramidate alkylator prodrugs” (Threshold Pharmaceuticals, Inc., priority 2005, dated 2013):

Columns and labels:
NCI-H460 cells [1] = test: Antiproliferation assay (Alamar Blue), anoxia vs air
NCI-H460 cells [2] = test: Antiproliferation assay - oxygen dependence; format: cell-based, human
Source text: . […] The calculated IC50 values (μM) are tabulated in Table Y1 (H460 cells) or Table Y2 (HT29 cells) below.

[3] = Homo sapiens, NCI-H460, 2 h, read-out: IC50 H460 Air, air, 2 h exposure
[4] = Homo sapiens, NCI-H460, 2 h, read-out: IC50 H460 Anoxia, anoxia, 2 h exposure
[5] = Homo sapiens, NCI-H460, read-out: IC50 in H460 cells, 0.6% O2
[6] = Homo sapiens, NCI-H460; read-out: IC50 in H460 cells, Air
[7] = read-out: IC50 H460 Air, air, 2 h exposure
[8] = read-out: IC50 H460 Anoxia, anoxia, 2 h exposure

Structure (SMILES) | IC50 (NCI-H460 cells [1]; [3]) [µM] | IC50 (NCI-H460 cells [1]; [4]) [µM] | other results
Cn1c(COP(=O)(N2CC2)N2CC2)cnc1[N+](=O)[O-] [Compound 28] | 20 | 0.15 | 
Cn1c(COc2ccc(COP3(=O)N(CCCl)CCCN3CCCl)cc2F)cnc1[N+](=O)[O-] [Compound 33] | 46 | 8 | 
C[C@@H](CCl)NP(=O)(N[C@@H](C)CCl)OCc1cnc([N+](=O)[O-])n1C [Compound 38] | > 100 | 0.33 | IC50 (NCI-H460 cells [2]; [5]): 45 µM; IC50 (NCI-H460 cells [2]; Homo sapiens, NCI-H460, read-out: IC50 in H460 cells, 1% O2): > 100 µM; IC50 (NCI-H460 cells [2]; Homo sapiens, NCI-H460; read-out: IC50 in H460 cells, N2): 0.4 µM
C[C@H](CCl)NP(=O)(N[C@H](C)CCl)OCc1ccc([N+](=O)[O-])s1 [Compound 39] |  |  | IC50 (NCI-H460 cells [1]; read-out: IC50 H460 Air): 5 µM; IC50 (NCI-H460 cells [1]; read-out: IC50 H460 Anoxia): 0.2 µM
C[C@@H](CCl)NP(=O)(N[C@@H](C)CCl)OCc1ccc([N+](=O)[O-])s1 [Compound 41] |  |  | IC50 (NCI-H460 cells [1]; read-out: IC50 H460 Air): 7 µM
C[C@@H](CCl)NP(=O)(N[C@@H](C)CCl)OCc1ccc([N+](=O)[O-])o1 [Compound 42] | 9 | 0.5 | 
CC(C)[C@H](CCl)NP(=O)(N[C@@H](CCl)C(C)C)OCc1ccc([N+](=O)[O-])o1 [Compound 43] | 60 | 2 | 
CC(C)[C@H](CCl)NP(=O)(N[C@@H](CCl)C(C)C)OCc1ccc([N+](=O)[O-])s1 [Compound 44] | 100 | 3 | IC50 (NCI-H460 cells [2]; [5]): 45 µM; IC50 (NCI-H460 cells [2]; [6]): > 100 µM
CC(C)[C@H](CCl)NP(=O)(N[C@@H](CCl)C(C)C)OCc1cnc([N+](=O)[O-])n1C [Compound 45] | > 100 | 6 | 
CC(C)[C@@H](CCl)NP(=O)(N[C@H](CCl)C(C)C)OCc1ccc([N+](=O)[O-])o1 [Compound 46] | > 100 | 5 | IC50 (NCI-H460 cells [2]; [5]): 50 µM; IC50 (NCI-H460 cells [2]; [6]): 100 µM
CC(C)[C@@H](CCl)NP(=O)(N[C@H](CCl)C(C)C)OCc1ccc([N+](=O)[O-])s1 [Compound 47] | > 100 | 4 | IC50 (NCI-H460 cells [2]; [5]): 60 µM; IC50 (NCI-H460 cells [2]; [6]): 100 µM
CC(C)[C@@H](CCl)NP(=O)(N[C@H](CCl)C(C)C)OCc1cnc([N+](=O)[O-])n1C [Compound 48] | > 100 |  | 
CC(C)[C@H](CCl)NP(=O)(N[C@@H](CCl)C(C)C)OCc1ccc(OCc2cnc([N+](=O)[O-])n2C)c(F)c1 [Compound 49] |  |  | IC50 (NCI-H460 cells [1]; read-out: IC50 H460 Air): > 100 µM
Cn1c(COc2ccc(COP(=O)(NCCBr)NCCBr)cc2F)cnc1[N+](=O)[O-] [Compound 50] | 3 | 0.1 | IC50 (NCI-H460 cells [2]; [5]): 3 µM; IC50 (NCI-H460 cells [2]; Homo sapiens, NCI-H460, read-out: IC50 in H460 cells, Air): 3 µM
C[C@H](CCl)NP(=O)(N[C@H](C)CCl)OCc1ccc(OCc2cnc([N+](=O)[O-])n2C)c(F)c1 [Compound 51] | 7 | 3 | IC50 (NCI-H460 cells [2]; [5]): 7 µM; IC50 (NCI-H460 cells [2]; [6]): 7 µM
C[C@H](CCl)NP(=O)(N[C@H](C)CCl)OCc1ccc(-c2ccc([N+](=O)[O-])o2)cc1 [Compound 57] |  |  | IC50 (NCI-H460 cells [1]; read-out: IC50 H460 Anoxia): 14 µM
O=[N+]([O-])c1ccc(C#Cc2ccc(COP(=O)(NCCBr)NCCBr)cc2)s1 [Compound 58] | 10 | 5 | 
CC(OP(=O)(NCCBr)NCCBr)c1ccc(-c2ccc([N+](=O)[O-])s2)cc1 (stereo not shown) [Compound 59] | 6 | 2 | 
COc1cc(C(C)OP(=O)(NCCBr)NCCBr)ccc1OCc1cnc([N+](=O)[O-])n1C (stereo not shown) [Compound 60] | 15 | 15 | 
Cn1c([N+](=O)[O-])nc(Br)c1-c1ccc(COP(=O)(NCCBr)NCCBr)cc1 [Compound 65] |  |  | IC50 (NCI-H460 cells [1]; [7]): 75 µM; IC50 (NCI-H460 cells [1]; [8]): 25 µM

Structure (SMILES) | IC50 (NCI-H460 cells [1]; [3]) [µM] | IC50 (NCI-H460 cells [1]; [4]) [µM] | other results
Cn1c(COP(=O)(NCCOS(C)(=O)=O)NCCOS(C)(=O)=O)cnc1[N+](=O)[O-] [Compound 67] | > 100 | 48 | 
Cn1c(COC(=O)NCCCOP(=O)(NCCBr)NCCBr)cnc1[N+](=O)[O-] [Compound 68] | > 100 | ≥ 100 | 
Cn1c(COC(=O)NCCCCOP(=O)(NCCBr)NCCBr)cnc1[N+](=O)[O-] [Compound 69] | > 100 | 71 | 
CC(OP(=O)(NCCBr)NCCBr)c1ccc(OCc2ccc([N+](=O)[O-])o2)c([N+](=O)[O-])c1 (stereo not shown) [Compound 71] | 0.1 | 0.1 | 
C[C@H](CBr)NP(=O)(N[C@H](C)CBr)OCc1ccc([N+](=O)[O-])o1 [Compound 72] | 12 | 0.5 | 
O=[N+]([O-])c1ccc(COP(=O)(NCCBr)NCCBr)cc1 [Compound 74] | > 100 | > 100 | 
O=[N+]([O-])c1ccc(COP(=O)(NCCBr)NCCBr)c([N+](=O)[O-])c1 [Compound 75] | 26 | 9 | 
O=[N+]([O-])c1ncc(COP(=O)(NCCCl)NCCCl)n1C1CCCCC1 [Compound 76] | > 100 | 9 | 
O=[N+]([O-])c1ncc(COP(=O)(NCCBr)NCCBr)n1C1CCCCC1 [Compound 77] | 5.5 | 1.6 | 
O=[N+]([O-])c1ccc(COP(=O)(NCCBr)NCCBr)cc1F [Compound 79] | 3.5 | 3.5 | 
O=[N+]([O-])c1nccn1CCCOP(=O)(NCCBr)NCCBr [Compound 80] | > 100 | > 100 | 
CCCn1c(COP(=O)(NCCCl)NCCCl)cnc1[N+](=O)[O-] [Compound 83] | > 100 | 0.3 | 
O=[N+]([O-])c1ccsc1COP(=O)(NCCBr)NCCBr [Compound 86] |  |  | IC50 (NCI-H460 cells [1]; [7]): 3 µM; IC50 (NCI-H460 cells [1]; [8]): 1.4 µM
CC(OP(=O)(NCCCl)NCCCl)c1ncc([N+](=O)[O-])n1C (stereo not shown) [Compound 87] | > 100 | 22 | 
CC(OP(=O)(NCCCl)NCCCl)c1ccc([N+](=O)[O-])s1 (stereo not shown) [Compound 89] | 3.7 | 0.33 | 
O=[N+]([O-])c1ncc(COP(=O)(NCCBr)NCCBr)n1CC(F)(F)F [Compound 90] | 3.4 | 0.01 | 
Cn1c(CSCCOP(=O)(NCCBr)NCCBr)cnc1[N+](=O)[O-] [Compound 91] | > 100 |  | 
Cn1c(CSCCCCOP(=O)(NCCBr)NCCBr)cnc1[N+](=O)[O-] [Compound 92] | > 100 | > 100 | 
CC(OP(=O)(N[C@H](C)CCl)N[C@H](C)CCl)c1ccc([N+](=O)[O-])s1 (stereo partly shown) [Compound 93] |  |  | IC50 (NCI-H460 cells [1]; [7]): 3.8 µM; IC50 (NCI-H460 cells [1]; [8]): 0.1 µM
O=[N+]([O-])c1sc(COP(=O)(NCCBr)NCCBr)cc1Br [Compound 94] | 2 | 0.3 | 

Structure (SMILES) | IC50 (NCI-H460 cells [1]; [3]) [µM] | IC50 (NCI-H460 cells [1]; [4]) [µM] | other results
O=[N+]([O-])c1sc(COP(=O)(NCCCl)NCCCl)cc1Br [Compound 95] | 2.7 |  | 
N#Cc1cc(COP(=O)(NCCCl)NCCCl)sc1[N+](=O)[O-] [Compound 96] |  |  | IC50 (NCI-H460 cells [1]; [7]): 0.1 µM; IC50 (NCI-H460 cells [1]; [8]): 0.1 µM
CC(OP(=O)(NCCCl)NCCCl)c1ccc([N+](=O)[O-])o1 (stereo not shown) [Compound 104] | 12 | 0.4 | 
CC(OP(=O)(NCCBr)NCCBr)c1ccc([N+](=O)[O-])o1 (stereo not shown) [Compound 105] | 1 | < 0.1 | 
O=[N+]([O-])c1ccc(COP(=O)(NCCOS(=O)(=O)c2ccc(Cl)cc2)NCCOS(=O)(=O)c2ccc(Cl)cc2)o1 [Compound 107] |  |  | IC50 (NCI-H460 cells [1]; Homo sapiens, NCI-H460, 2 h, read-out: IC50 H460 Air): 2.8 µM; IC50 (NCI-H460 cells [1]; Homo sapiens, NCI-H460, 2 h, read-out: IC50 H460 Anoxia): 0.06 µM
O=[N+]([O-])c1ccc(-c2ccc(OP3(=O)N(CCBr)CCN3CCBr)cc2)s1 [Compound 111] | 100 | 50 | 
Cn1c(COC(=O)NC(C)(C)COP2(=O)N(CCBr)CCN2CCBr)cnc1[N+](=O)[O-] [Compound 112] | > 100 | 70 | 
CC(C)(C#Cc1ccc([N+](=O)[O-])s1)COP(N)(=O)N(CCCl)CCCl (stereo not shown) [Compound 115] | 5 | 0.5 | 
Cc1cc(C(C)OP(N)(=O)N(CCCl)CCCl)sc1[N+](=O)[O-] (stereo not shown) [Compound 116] | 15 | 0.5 | 
CC(C)(C#Cc1ccc([N+](=O)[O-])cc1)OP(N)(=O)N(CCCl)CCCl (stereo not shown) [Compound 117] | 70 | 8 | 
O=[N+]([O-])c1ccc(COP(=O)(NCCCCCCCCNP(=O)(OCc2ccc([N+](=O)[O-])o2)N(CCCl)CCCl)N(CCCl)CCCl)o1 (stereo not shown) [Compound 139] | 100 | 16 | 
O=[N+]([O-])c1ccc(COP(=O)(NCCOCCOCCNP(=O)(OCc2ccc([N+](=O)[O-])o2)N(CCCl)CCCl)N(CCCl)CCCl)o1 (stereo not shown) [Compound 140] | 65 | 5 | 
Cn1c([N+](=O)[O-])cnc1COc1ccc(COP(N)(=O)N(CCCl)CCCl)cc1 (stereo not shown) [Compound 142] | > 100 | > 40 | 
O=[N+]([O-])c1ccc(COP(=O)(N(CCCl)CCCl)N(CCCl)CCCl)o1 [Compound 143] | 3.5 | 4.5 | 
Cn1c(COP(=O)(OCc2cnc([N+](=O)[O-])n2C)N(CCCl)CCCl)cnc1[N+](=O)[O-] [Compound 145] | > 100 | > 100 | 
Cn1c([N+](=O)[O-])cnc1/C=C/COP1(=O)N(CCCl)CCN1CCCl [Compound 147] | > 100 | > 100 | 
CC(=O)NP(=O)(OCc1cnc([N+](=O)[O-])n1C)N(CCCl)CCCl (stereo not shown) [Compound 149] | > 100 | 50 | 
CN(CCCl)P(=O)(OCc1ccc(OCc2cnc([N+](=O)[O-])n2C)c(F)c1)N(C)CCCl [Compound 150] | 21 |  | 
COc1cc2c(=O)n(CCN(C)P(=O)(OCc3ccc([N+](=O)[O-])o3)N(CCCl)CCCl)c3c4cc5c(cc4ncc3c2cc1OC)OCO5 (stereo not shown) [Compound 154] | 2 | 0.9 | 
